From patent US11958812B2, “3, 5-disubstituted pyridine and 3, 5-disubstituted pyridazine derivatives and pharmaceutical use of same” (MITSUBISHI TANABE PHARMA CORPORATION, priority 2018, dated 2024) come the findings set out here.

The target in one test is human recombinant ATX (Homo sapiens, UniProt Q13822). Put plainly: Enzyme inhibition test (choline release from LPC, Amplex UltraRed fluorescence). In kind it is biochemical. Particulars: 200 μM LPC substrate, 1 hr at room temperature, read-out: Experimental Example 1 human ATX IC50. The procedure: [Enzyme Inhibition Test Method]
A mixture (10 μL) of substrate and a set of choline quantification reagents (200 μM LPC (1-Oleoyl-sn-glycero-3-phosphocholine Sigma #L1881), 25 μM Amplex UltraRed reagent (Invitrogen), 0.1 U/mL Peroxidase (TOYOBO), 1 U/mL Choline oxidase (TOYOBO)), prepared with assay buffer (50 mM Tris (pH 8.0), 140 mM NaCl, 5 mM KCl, 1 mM CaCl2, 1 mM MgCl2, 0.1% BSA (Albumin from bovine serum, SIGMA), 0.0025% Triton X-100), enzyme (0.4 ng/μL human recombinant ATX) (10 μL), compound-containing solution (100 nL) were dispensed to a 384-well plate, incubated at room temperature for 1 hr and the fluorescence (Ex. 525 nm/Em. 598 nm) was measured. As the standard, choline chloride was used. With a blank free of enzyme was taken as inhibitory rate 100%, and a control free of inhibitor as inhibitory rate 0%, the inhibitory rate was calculated, and IC50 value was calculated from the inhibitory activity percentage at each concentration.

The next test deals with T1, ATX activity in plasma (Rattus norvegicus, UniProt Q64610).
T1 construct: from tissue; host or cells: plasma of male Wistar rats after oral dosing
In words: Measurement of ATX activity in plasma (ex vivo), rat single administration test. Also noted: species or system male Wistar rat. Here is the method:
[Measurement of ATX Activity in Plasma (Ex Vivo)]
A compound administration solution prepared by wet pulverization in a mixer mill (type: MM400) for 10 min and adjusting to a given concentration with 0.5% aqueous carboxymethylcellulose solution was orally administered to male Wistar rat (5-week-old when used) at 5 mL/kg. Blood samples were collected from the cervical vein over time at 8 to 24 hr after administration. The blood was heparin-treated using a micro blood collection tube Capiject (CJ-AL, TERUMO CORPORATION), and the plasma was separated by centrifugation (4° C., 12,000 rpm, for 2 min), and preserved at −80° C. The rats after blood sampling were euthanized by exsanguination from the caudal vena cava under isoflurane inhalation anesthesia. The measurement of ATX activity in plasma was evaluated using the concentration of choline in the plasma, which was liberated from lysophosphatidylcholine (substrate of ATX) by the lysophospholipase D activity of ATX, as an index. An equal amount of 2× assay buffer (200 mM Tris-HCl pH9.0, 10 mM MgCl2, 1 M NaCl, 0.1% Triton X-100) is added to plasma (12 μL) and reacted at 37° C. for 6 hr. The reaction mixture (10 μL) after reaction for 6 hr and 45 μL of reagent R^1 solution (100 mM Tris-HCl pH 8.0, 0.5 mM TOOS, 10 U/mL peroxidase, 0.01% Triton X-100) were added and blended and absorbance at 550-700 nm was measured and used as a prevalue. As the standard, choline chloride was used. 1 mM choline chloride was diluted with 2× assay buffer up to 7 steps in 2-fold serial dilution, R^1 solution was treated similarly and the absorbance was measured. Furthermore, 15 μL of reagent R^2 solution (100 mM Tris-HCl pH 8.0, 1 mM 4-aminoantipyrine, 10 U/mL choline oxidase, 0.01% Triton X-100) was added, and the mixture was reacted at room temperature for 10 min, and absorbance at 550-700 nm was measured. The choline concentration per reaction time was calculated from the difference between the absorbance after R^2 solution addition and prevalue measured before R^2 addition and used as ATX activity value. inhibitory activity (%)=100×{1−[choline concentration (μM) of test substance administration group/choline concentration (μM) of solvent control group]} <calculating formula>

The term IC50 denotes the midpoint of a concentration-inhibition curve. With `COc1ccc(-c2cnnc(OC[C@H]3CC[C@H](C(F)(F)F)CC3)c2)cc1[C@@H]1C[C@H]1C(=O)O` [Example 1-2, (1R,2R)-2-[2-methoxy-5-(6-{[trans-4-(trifluoromethyl)cyclohexyl]methoxy}pyridazin-4-yl)phenyl]cyclopropanecarboxylic Acid], the half-maximal inhibitory concentration (IC50) at human recombinant ATX worked out at 5 nM. Besides, on ATX activity in plasma, the “Experimental Example 2 Rat single administration test (inhibitory activity (%) 8 hr after 1 mg/kg oral administration)” value stood at 93%.
For `COc1ccc(-c2cncc(CCc3ccc(OC(F)(F)F)cc3)c2)nc1[C@H]1C[C@@H]1C(=O)O` [Example 6, (1S,2S)-2-(5-methoxy-5′-{2-[4-(trifluoromethoxy)phenyl]ethyl}-2,3′-bipyridin-6-yl)cyclopropanecarboxylic Acid] the same measures were 4 nM and 71%.
The like results for `O=C(O)[C@H]1C[C@@H]1c1cccc(-c2cncc(OC[C@H]3CC[C@H](C(F)(F)F)CC3)c2)n1` [Example 8-1, (1S,2S)-2-(5′-{[trans-4-(trifluoromethyl)cyclohexyl]methoxy}-2,3′-bipyridin-6-yl)cyclopropanecarboxylic Acid] were, in that order, 2 nM and 92%.
As for `O=C(O)[C@@H]1C[C@H]1c1cccc(-c2cncc(OC[C@H]3CC[C@H](C(F)(F)F)CC3)c2)n1` [Example 8-2, (1R,2R)-2-(5′-{[trans-4-(trifluoromethyl)cyclohexyl]methoxy}-2,3′-bipyridin-6-yl)cyclopropanecarboxylic Acid], the IC50 on human recombinant ATX was found to be 20 nM. Moreover, the “Experimental Example 2 Rat single administration test (inhibitory activity (%) 8 hr after 1 mg/kg oral administration)” value at ATX activity in plasma is given as 47%.
With `O=C(O)[C@H]1C[C@@H]1c1cc(-c2cncc(OC[C@H]3CC[C@H](C(F)(F)F)CC3)c2)ccn1` [Example 9-1, (1S,2S)-2-(5-{[trans-4-(trifluoromethyl)cyclohexyl]methoxy}-3,4′-bipyridin-2′-yl)cyclopropanecarboxylic Acid], the half-maximal inhibitory concentration (IC50) at human recombinant ATX was 2 nM. The “Experimental Example 2 Rat single administration test (inhibitory activity (%) 8 hr after 1 mg/kg oral administration)” value at ATX activity in plasma is reported as 94%.
Turning to `O=C(O)[C@@H]1C[C@H]1c1cc(-c2cncc(OC[C@H]3CC[C@H](C(F)(F)F)CC3)c2)ccn1` [Example 9-2, (1R,2R)-2-(5-{[trans-4-(trifluoromethyl)cyclohexyl]methoxy}-3,4′-bipyridin-2′-yl)cyclopropanecarboxylic Acid], the concentration for half-maximal inhibition (IC50) at human recombinant ATX was found to be 3 nM. The “Experimental Example 2 Rat single administration test (inhibitory activity (%) 8 hr after 1 mg/kg oral administration)” value on ATX activity in plasma is given as 94%.
The like results for `O=C(O)c1ccc2c(c1)CCN2c1cncc(OC[C@H]2CC[C@H](C(F)(F)F)CC2)c1` [Example 12, 1-(5-{[trans-4-(trifluoromethyl)cyclohexyl]methoxy}pyridin-3-yl)-2,3-dihydro-1H-indole-5-carboxylic Acid] were, in that order, 1 nM and 76%.
For `O=C(O)CC[C@H]1CN(c2cncc(OCc3ccc(OC(F)(F)F)cc3)c2)CCO1` [Example 14, 3-[(2S)-4-(5-{[4-(trifluoromethoxy)benzyl]oxy}pyridin-3-yl)morpholin-2-yl]propanoic Acid] the same measures were 12 nM and 92%.
`O=C(O)CC[C@H]1CN(c2cncc(OCc3ccc(C(F)(F)F)cc3)c2)CCO1` [Example 15, 3-[(2S)-4-(5-{[4-(trifluoromethyl)benzyl]oxy}pyridin-3-yl)morpholin-2-yl]propanoic Acid]: the IC50 on human recombinant ATX was determined as 42 nM. Further, on ATX activity in plasma, the “Experimental Example 2 Rat single administration test (inhibitory activity (%) 8 hr after 1 mg/kg oral administration)” value is given as 75%.
As to `O=C(O)CC[C@H]1CN(c2cncc(OC[C@H]3CC[C@H](C(F)(F)F)CC3)c2)CCO1` [Example 16, 3-[(2S)-4-(5-{[trans-4-(trifluoromethyl)cyclohexyl]methoxy}pyridin-3-yl)morpholin-2-yl]propanoic Acid], the IC50 on human recombinant ATX worked out at 13 nM. Also, the “Experimental Example 2 Rat single administration test (inhibitory activity (%) 8 hr after 1 mg/kg oral administration)” value on ATX activity in plasma is listed as 89%.
